Measurements reported in US8147838B2, “Peptide” (priority 2005, dated 2012).

system: PBMCs recovered from TroVax treated patients; assay type: cell-based, human; conditions: from HLA-type frequency among responding patients

| Substance | most likely HLA restriction |
| --- | --- |
| 42.2: class II 5T4 20 mer peptide (details in Table 12) (MRNRVLLELNSADLDCDPIL) [Peptide 42.2] | DQ6, DR51, DQ5, or DR15 |
| 43.2: class II 5T4 20 mer peptide (details in Table 12) (LNSADLDCDPILPPSLQTSY) [Peptide 43.2] | DQ6, DR15, or DR51 |
| 44.2: class II 5T4 20 mer peptide (details in Table 12) (DPILPPSLQTSYVFLGIVLA) [Peptide 44.2] | DQ6, DR15, DR51, or DR52 |

same assay, conditions: positive proliferative responses

| Substance | responders with HLA type DQ5 out of all responders | responders with HLA type DQ6 out of all responders | responders with HLA type DR15 out of all responders | responders with HLA type DR51 out of all responders | responders with HLA type DR52 out of all responders |
| --- | --- | --- | --- | --- | --- |
| 42.2: class II 5T4 20 mer peptide (details in Table 12) (MRNRVLLELNSADLDCDPIL) [Peptide 42.2] | 6 out of 12 | 8 out of 12 | 6 out of 12 | 7 out of 12 | – |
| 43.2: class II 5T4 20 mer peptide (details in Table 12) (LNSADLDCDPILPPSLQTSY) [Peptide 43.2] | – | 7 out of 11 | 6 out of 11 | 6 out of 11 | – |
| 44.2: class II 5T4 20 mer peptide (details in Table 12) (DPILPPSLQTSYVFLGIVLA) [Peptide 44.2] | – | 5 out of 9 | 5 out of 9 | 5 out of 9 | 5 out of 9 |

same assay, conditions: responding patients with HLA type DQ2 / all responding patients; PBMCs from TroVax treated patients

| Substance | HLA-type distribution among positive proliferative responses: DQ2 |
| --- | --- |
| 42.2: class II 5T4 20 mer peptide (details in Table 12) (MRNRVLLELNSADLDCDPIL) [Peptide 42.2] | 4/12 |
| 43.2: class II 5T4 20 mer peptide (details in Table 12) (LNSADLDCDPILPPSLQTSY) [Peptide 43.2] | 5/11 |
| 44.2: class II 5T4 20 mer peptide (details in Table 12) (DPILPPSLQTSYVFLGIVLA) [Peptide 44.2] | 3/9 |

same assay, conditions: responding patients with HLA type DQ4 / all responding patients; PBMCs from TroVax treated patients

| Substance | HLA-type distribution among positive proliferative responses: DQ4 |
| --- | --- |
| 42.2: class II 5T4 20 mer peptide (details in Table 12) (MRNRVLLELNSADLDCDPIL) [Peptide 42.2] | 0/12 |
| 43.2: class II 5T4 20 mer peptide (details in Table 12) (LNSADLDCDPILPPSLQTSY) [Peptide 43.2] | 1/11 |
| 44.2: class II 5T4 20 mer peptide (details in Table 12) (DPILPPSLQTSYVFLGIVLA) [Peptide 44.2] | 0/9 |

same assay, conditions: responding patients with HLA type DQ5 / all responding patients; PBMCs from TroVax treated patients

| Substance | HLA-type distribution among positive proliferative responses: DQ5 |
| --- | --- |
| 42.2: class II 5T4 20 mer peptide (details in Table 12) (MRNRVLLELNSADLDCDPIL) [Peptide 42.2] | 6/12 |
| 43.2: class II 5T4 20 mer peptide (details in Table 12) (LNSADLDCDPILPPSLQTSY) [Peptide 43.2] | 3/11 |
| 44.2: class II 5T4 20 mer peptide (details in Table 12) (DPILPPSLQTSYVFLGIVLA) [Peptide 44.2] | 3/9 |

same assay, conditions: responding patients with HLA type DQ6 / all responding patients; PBMCs from TroVax treated patients

| Substance | HLA-type distribution among positive proliferative responses: DQ6 |
| --- | --- |
| 42.2: class II 5T4 20 mer peptide (details in Table 12) (MRNRVLLELNSADLDCDPIL) [Peptide 42.2] | 8/12 |
| 43.2: class II 5T4 20 mer peptide (details in Table 12) (LNSADLDCDPILPPSLQTSY) [Peptide 43.2] | 7/11 |
| 44.2: class II 5T4 20 mer peptide (details in Table 12) (DPILPPSLQTSYVFLGIVLA) [Peptide 44.2] | 5/9 |

same assay, conditions: responding patients with HLA type DQ7 / all responding patients; PBMCs from TroVax treated patients

| Substance | HLA-type distribution among positive proliferative responses: DQ7 |
| --- | --- |
| 42.2: class II 5T4 20 mer peptide (details in Table 12) (MRNRVLLELNSADLDCDPIL) [Peptide 42.2] | 0/12 |
| 43.2: class II 5T4 20 mer peptide (details in Table 12) (LNSADLDCDPILPPSLQTSY) [Peptide 43.2] | 1/11 |
| 44.2: class II 5T4 20 mer peptide (details in Table 12) (DPILPPSLQTSYVFLGIVLA) [Peptide 44.2] | 3/9 |

same assay, conditions: responding patients with HLA type DQ8 / all responding patients; PBMCs from TroVax treated patients

| Substance | HLA-type distribution among positive proliferative responses: DQ8 |
| --- | --- |
| 42.2: class II 5T4 20 mer peptide (details in Table 12) (MRNRVLLELNSADLDCDPIL) [Peptide 42.2] | 1/12 |
| 43.2: class II 5T4 20 mer peptide (details in Table 12) (LNSADLDCDPILPPSLQTSY) [Peptide 43.2] | 0/11 |
| 44.2: class II 5T4 20 mer peptide (details in Table 12) (DPILPPSLQTSYVFLGIVLA) [Peptide 44.2] | 0/9 |

same assay, conditions: responding patients with HLA type DQ9 / all responding patients; PBMCs from TroVax treated patients

| Substance | HLA-type distribution among positive proliferative responses: DQ9 |
| --- | --- |
| 42.2: class II 5T4 20 mer peptide (details in Table 12) (MRNRVLLELNSADLDCDPIL) [Peptide 42.2] | 1/12 |
| 43.2: class II 5T4 20 mer peptide (details in Table 12) (LNSADLDCDPILPPSLQTSY) [Peptide 43.2] | 1/11 |
| 44.2: class II 5T4 20 mer peptide (details in Table 12) (DPILPPSLQTSYVFLGIVLA) [Peptide 44.2] | 1/9 |

same assay, conditions: responding patients with HLA type DR1 / all responding patients; PBMCs from TroVax treated patients

| Substance | HLA-type distribution among positive proliferative responses: DR1 |
| --- | --- |
| 42.2: class II 5T4 20 mer peptide (details in Table 12) (MRNRVLLELNSADLDCDPIL) [Peptide 42.2] | 4/12 |
| 43.2: class II 5T4 20 mer peptide (details in Table 12) (LNSADLDCDPILPPSLQTSY) [Peptide 43.2] | 2/11 |
| 44.2: class II 5T4 20 mer peptide (details in Table 12) (DPILPPSLQTSYVFLGIVLA) [Peptide 44.2] | 2/9 |

same assay, conditions: responding patients with HLA type DR4 / all responding patients; PBMCs from TroVax treated patients

| Substance | HLA-type distribution among positive proliferative responses: DR4 |
| --- | --- |
| 42.2: class II 5T4 20 mer peptide (details in Table 12) (MRNRVLLELNSADLDCDPIL) [Peptide 42.2] | 1/12 |
| 43.2: class II 5T4 20 mer peptide (details in Table 12) (LNSADLDCDPILPPSLQTSY) [Peptide 43.2] | 0/11 |
| 44.2: class II 5T4 20 mer peptide (details in Table 12) (DPILPPSLQTSYVFLGIVLA) [Peptide 44.2] | 1/9 |

same assay, conditions: responding patients with HLA type DR7 / all responding patients; PBMCs from TroVax treated patients

| Substance | HLA-type distribution among positive proliferative responses: DR7 |
| --- | --- |
| 42.2: class II 5T4 20 mer peptide (details in Table 12) (MRNRVLLELNSADLDCDPIL) [Peptide 42.2] | 3/12 |
| 43.2: class II 5T4 20 mer peptide (details in Table 12) (LNSADLDCDPILPPSLQTSY) [Peptide 43.2] | 4/11 |
| 44.2: class II 5T4 20 mer peptide (details in Table 12) (DPILPPSLQTSYVFLGIVLA) [Peptide 44.2] | 0/9 |

same assay, conditions: responding patients with HLA type DR8 / all responding patients; PBMCs from TroVax treated patients

| Substance | HLA-type distribution among positive proliferative responses: DR8 |
| --- | --- |
| 42.2: class II 5T4 20 mer peptide (details in Table 12) (MRNRVLLELNSADLDCDPIL) [Peptide 42.2] | 0/12 |
| 43.2: class II 5T4 20 mer peptide (details in Table 12) (LNSADLDCDPILPPSLQTSY) [Peptide 43.2] | 1/11 |
| 44.2: class II 5T4 20 mer peptide (details in Table 12) (DPILPPSLQTSYVFLGIVLA) [Peptide 44.2] | 0/9 |

same assay, conditions: responding patients with HLA type DR9 / all responding patients; PBMCs from TroVax treated patients

| Substance | HLA-type distribution among positive proliferative responses: DR9 |
| --- | --- |
| 42.2: class II 5T4 20 mer peptide (details in Table 12) (MRNRVLLELNSADLDCDPIL) [Peptide 42.2] | 0/12 |
| 43.2: class II 5T4 20 mer peptide (details in Table 12) (LNSADLDCDPILPPSLQTSY) [Peptide 43.2] | 0/11 |
| 44.2: class II 5T4 20 mer peptide (details in Table 12) (DPILPPSLQTSYVFLGIVLA) [Peptide 44.2] | 1/9 |

same assay, conditions: responding patients with HLA type DR11 / all responding patients; PBMCs from TroVax treated patients

| Substance | HLA-type distribution among positive proliferative responses: DR11 |
| --- | --- |
| 42.2: class II 5T4 20 mer peptide (details in Table 12) (MRNRVLLELNSADLDCDPIL) [Peptide 42.2] | 1/12 |
| 43.2: class II 5T4 20 mer peptide (details in Table 12) (LNSADLDCDPILPPSLQTSY) [Peptide 43.2] | 1/11 |
| 44.2: class II 5T4 20 mer peptide (details in Table 12) (DPILPPSLQTSYVFLGIVLA) [Peptide 44.2] | 1/9 |

same assay, conditions: responding patients with HLA type DR13 / all responding patients; PBMCs from TroVax treated patients

| Substance | HLA-type distribution among positive proliferative responses: DR13 |
| --- | --- |
| 42.2: class II 5T4 20 mer peptide (details in Table 12) (MRNRVLLELNSADLDCDPIL) [Peptide 42.2] | 2/12 |
| 43.2: class II 5T4 20 mer peptide (details in Table 12) (LNSADLDCDPILPPSLQTSY) [Peptide 43.2] | 2/11 |
| 44.2: class II 5T4 20 mer peptide (details in Table 12) (DPILPPSLQTSYVFLGIVLA) [Peptide 44.2] | 1/9 |

same assay, conditions: responding patients with HLA type DR15 / all responding patients; PBMCs from TroVax treated patients

| Substance | HLA-type distribution among positive proliferative responses: DR15 |
| --- | --- |
| 42.2: class II 5T4 20 mer peptide (details in Table 12) (MRNRVLLELNSADLDCDPIL) [Peptide 42.2] | 6/12 |
| 43.2: class II 5T4 20 mer peptide (details in Table 12) (LNSADLDCDPILPPSLQTSY) [Peptide 43.2] | 6/11 |
| 44.2: class II 5T4 20 mer peptide (details in Table 12) (DPILPPSLQTSYVFLGIVLA) [Peptide 44.2] | 5/9 |

same assay, conditions: responding patients with HLA type DR17 / all responding patients; PBMCs from TroVax treated patients

| Substance | HLA-type distribution among positive proliferative responses: DR17 |
| --- | --- |
| 42.2: class II 5T4 20 mer peptide (details in Table 12) (MRNRVLLELNSADLDCDPIL) [Peptide 42.2] | 2/12 |
| 43.2: class II 5T4 20 mer peptide (details in Table 12) (LNSADLDCDPILPPSLQTSY) [Peptide 43.2] | 2/11 |
| 44.2: class II 5T4 20 mer peptide (details in Table 12) (DPILPPSLQTSYVFLGIVLA) [Peptide 44.2] | 3/9 |

same assay, conditions: responding patients with HLA type DR51 / all responding patients; PBMCs from TroVax treated patients

| Substance | HLA-type distribution among positive proliferative responses: DR51 |
| --- | --- |
| 42.2: class II 5T4 20 mer peptide (details in Table 12) (MRNRVLLELNSADLDCDPIL) [Peptide 42.2] | 7/12 |
| 43.2: class II 5T4 20 mer peptide (details in Table 12) (LNSADLDCDPILPPSLQTSY) [Peptide 43.2] | 6/11 |
| 44.2: class II 5T4 20 mer peptide (details in Table 12) (DPILPPSLQTSYVFLGIVLA) [Peptide 44.2] | 5/9 |

same assay, conditions: responding patients with HLA type DR52 / all responding patients; PBMCs from TroVax treated patients

| Substance | HLA-type distribution among positive proliferative responses: DR52 |
| --- | --- |
| 42.2: class II 5T4 20 mer peptide (details in Table 12) (MRNRVLLELNSADLDCDPIL) [Peptide 42.2] | 5/12 |
| 43.2: class II 5T4 20 mer peptide (details in Table 12) (LNSADLDCDPILPPSLQTSY) [Peptide 43.2] | 4/11 |
| 44.2: class II 5T4 20 mer peptide (details in Table 12) (DPILPPSLQTSYVFLGIVLA) [Peptide 44.2] | 5/9 |

same assay, conditions: responding patients with HLA type DR53 / all responding patients; PBMCs from TroVax treated patients

| Substance | HLA-type distribution among positive proliferative responses: DR53 |
| --- | --- |
| 42.2: class II 5T4 20 mer peptide (details in Table 12) (MRNRVLLELNSADLDCDPIL) [Peptide 42.2] | 3/12 |
| 43.2: class II 5T4 20 mer peptide (details in Table 12) (LNSADLDCDPILPPSLQTSY) [Peptide 43.2] | 3/11 |
| 44.2: class II 5T4 20 mer peptide (details in Table 12) (DPILPPSLQTSYVFLGIVLA) [Peptide 44.2] | 2/9 |
